Data as given in the supplement of paper PMC10307832.

Legend:
Assay in all cases: relative viability (nuclei count vs DMSO), 5 days (fraction); higher = more cells survive
[1] = compound: CC(O)(CS(=O)(=O)c1ccc(F)cc1)C(=O)Nc1ccc(C#N)c(C(F)(F)F)c1 [Bicalutamide] + O=C(CCCCCCC(=O)Nc1ccccc1)NO [Vorinostat] (partner 1 µM)
Procedure, shortened: (§1)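 The day after seeding in 1536-well plates, lung cancer cell lines were treated by pin tool with a single drug, or with a fixed anchor-drug dose together with five library-drug doses (not always all listed) in √10 steps. After 5 days, a combined fix-and-stain solution (final 0.05% Triton X-100, 1% formaldehyde, 1 ug/ml Hoechst) was added. Nuclei counted on 4× images gave relative viability as treated counts over vehicle counts, reported as the median of duplicate plates.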

[2] = compound: CC(O)(CS(=O)(=O)c1ccc(F)cc1)C(=O)Nc1ccc(C#N)c(C(F)(F)F)c1 [Bicalutamide] + Nc1ncn([C@H]2C[C@H](O)[C@@H](CO)O2)c(=O)n1 [Decitabine] (partner 2 µM)
Procedure, shortened: as §1

[3] = compound: C(C(=O)C(=O)O)Br [Bromopyruvate] + O=C(CCCCCCC(=O)Nc1ccccc1)NO [Vorinostat] (partner 1 µM)
Procedure, shortened: as §1

Bicalutamide + Dasatinib = compound: CC(O)(CS(=O)(=O)c1ccc(F)cc1)C(=O)Nc1ccc(C#N)c(C(F)(F)F)c1 [Bicalutamide] + Cc1nc(Nc2ncc(C(=O)Nc3c(C)cccc3Cl)s2)cc(N2CCN(CCO)CC2)n1 [Dasatinib] (partner 0.075 µM)
Procedure, shortened: as §1

Cell Line | relative viability ([1]; first compound 0.08 µM) | relative viability ([1]; first compound 0.253 µM) | relative viability ([1]; first compound 0.8 µM) | relative viability ([1]; first compound 2.53 µM) | relative viability ([2]; first compound 0.08 µM) | relative viability ([2]; first compound 0.253 µM) | relative viability ([2]; first compound 0.8 µM) | relative viability ([2]; first compound 2.53 µM) | relative viability ([3]; first compound 1 µM) | relative viability ([3]; first compound 3.162 µM) | relative viability ([3]; first compound 10 µM) | relative viability ([3]; first compound 31.62 µM) | relative viability ([3]; first compound 100 µM) | relative viability (Bicalutamide + Dasatinib; first compound 0.08 µM) | relative viability (Bicalutamide + Dasatinib; first compound 0.8 µM) | relative viability (Bicalutamide + Dasatinib; first compound 2.53 µM) | relative viability (Bicalutamide + Dasatinib; first compound 0.253 µM)
SW 1573 | 1.26 | 0.586 | 1.12 | 0.652 | 0.664 | 0.457 | 0.659 | 0.441 | 0.799 | 0.861 | 0.924 | 0.478 | 0.0513 | 0.525 | 0.683 | 0.275 | –
RERF-LC-KJ | 0.779 | 0.606 | 0.864 | 0.564 | 0.745 | 0.631 | 0.837 | 0.66 | 0.707 | 0.655 | 0.673 | 0.626 | 0.516 | 0.91 | 1.04 | 0.694 | 0.814
EMC-BAC-2 | 0.5 | 0.434 | 0.833 | 0.289 | 0.976 | 0.875 | 0.948 | 0.892 | 0.719 | 0.336 | 0.277 | – | 0.389 | 0.347 | 0.33 | 0.298 | 0.287
LK-2 | 0.346 | 0.339 | 0.354 | 0.311 | 0.345 | 0.238 | 0.329 | 0.305 | 0.333 | 0.203 | 0.218 | 0.297 | 0.165 | 0.283 | 0.261 | 0.293 | 0.224
NCI-H322M | 0.858 | 0.898 | 0.995 | 1.11 | 0.656 | 0.494 | 0.649 | 0.735 | 1.04 | 0.844 | 0.739 | 0.8 | 0.88 | 0.236 | 0.264 | 0.319 | 0.248
NCI-H1975 | 0.73 | 0.742 | 0.703 | 0.557 | 0.384 | 0.36 | 0.436 | 0.408 | 0.741 | 0.761 | 0.687 | 0.675 | 0.582 | 0.396 | 0.462 | 0.334 | 0.376
NCI-H1944 | 0.54 | 0.516 | 0.593 | 0.438 | 0.441 | 0.433 | 0.428 | 0.462 | 0.592 | 0.647 | 0.582 | 0.568 | 0.654 | 0.233 | 0.216 | 0.208 | 0.203
LU99A | 0.461 | 0.436 | 0.626 | 0.43 | 0.96 | 0.896 | 1.02 | 0.719 | 0.46 | 0.526 | 0.567 | 0.532 | 0.409 | 0.569 | 0.738 | 0.444 | 0.536
NCI-H2405 | 1.09 | 0.985 | 1.49 | 0.975 | 0.708 | 0.689 | 0.787 | 0.716 | 1.35 | 1.01 | 0.814 | – | 0.742 | 0.23 | 0.235 | 0.154 | 0.199
NCI-H2023 | 0.69 | 0.608 | 0.893 | 0.349 | 0.267 | 0.227 | 0.248 | 0.233 | 0.547 | 0.687 | 0.619 | 0.464 | 0.615 | 0.599 | 0.758 | 0.488 | 0.48
HCC-15 | 0.746 | 0.761 | 0.954 | 0.899 | 0.63 | 0.595 | 0.74 | 0.584 | 0.792 | 0.838 | 0.782 | 0.818 | 0.686 | 0.666 | 0.653 | 0.609 | 0.568
COR-L23 | 0.443 | 0.486 | 0.411 | 0.267 | 0.476 | 0.389 | 0.455 | 0.367 | 0.381 | 0.473 | 0.432 | 0.387 | 0.255 | 0.628 | 0.407 | 0.476 | 0.513
HCC-78 | 0.489 | 0.436 | 0.462 | 0.447 | 0.726 | 0.589 | 0.819 | 0.71 | 0.493 | 0.443 | 0.444 | 0.404 | 0.427 | 0.363 | 0.483 | 0.375 | 0.297
NCI-H838 | 0.72 | 0.707 | 0.749 | 0.564 | 0.484 | 0.461 | 0.508 | 0.371 | 0.7 | 0.684 | 0.652 | 0.631 | 0.607 | 0.319 | 0.392 | 0.272 | 0.303
NCI-H2126 | 0.716 | 0.712 | 0.931 | 0.75 | 0.572 | 0.537 | 0.582 | 0.528 | 0.82 | 0.832 | 0.886 | 0.829 | 0.639 | 0.628 | 0.632 | 0.555 | 0.581
BEN | 0.537 | 0.719 | 0.588 | 0.617 | 0.736 | 0.658 | 0.838 | 0.7 | 0.588 | 0.581 | 0.485 | 0.608 | 0.411 | 0.355 | 0.393 | 0.38 | 0.316
LCLC-103H | 0.791 | 0.679 | 0.914 | 0.744 | 0.714 | 0.717 | 0.717 | 0.756 | 0.762 | 0.757 | 0.818 | 0.821 | 0.691 | 0.401 | 0.52 | 0.425 | 0.428
EKVX | 0.814 | 0.656 | 0.711 | 0.713 | 0.336 | 0.37 | 0.32 | 0.333 | 0.668 | 0.685 | 0.718 | 0.729 | 0.713 | 0.619 | 0.662 | 0.66 | 0.491
LXF-289 | 0.818 | 0.734 | 0.797 | 0.698 | 0.346 | 0.398 | 0.403 | 0.403 | 0.777 | 0.796 | 0.714 | 0.81 | 0.677 | 0.214 | 0.227 | 0.194 | 0.25
